assay: method code G-GLC, from Herzke, D.; Rotard, W. (1999). Physical-chemical properties of polyfluorinated dibenzodioxins and dibenzofurans. Organohalogen Compounds, 41, 171-174.

logP | Structure (SMILES)
3.6 | Fc1ccc2c(c1)Oc1c(F)c(F)c(F)c(F)c1O2
3 | Fc1c(F)c(F)c2c(c1F)Oc1c(F)c(F)c(F)c(F)c1O2
3.1 | Fc1cc(F)c2c(c1F)Oc1c(F)c(F)cc(F)c1O2
3.1 | Fc1cc2c(c(F)c1F)Oc1c(F)cc(F)c(F)c1O2
4.4 | Fc1ccc2oc3c(F)c(F)c(F)c(F)c3c2c1F
3.8 | Fc1cc2c(cc1F)Oc1c(F)c(F)c(F)c(F)c1O2
3.3 | Fc1ccc2c(c1)Oc1ccc(F)cc1O2

The remaining lines, values behind:

Structure (SMILES) | logP
Fc1cc2oc3c(F)c(F)c(F)c(F)c3c2cc1F | 4
Clc1ccc2c(c1)Oc1ccc(Cl)cc1O2 | 5.7
Fc1cc2c(cc1F)Oc1cc(F)c(F)cc1O2 | 3.5
Clc1cc2c(oc3ccccc32)c(Cl)c1Cl | 6.4
Clc1c(Cl)c(Cl)c2c(c1Cl)Oc1c(Cl)c(Cl)c(Cl)c(Cl)c1O2 | 8.2
Fc1cc2c(oc3ccccc32)c(F)c1F | 3.4
Clc1ccc2oc3ccccc3c2c1Cl | 5.6
